Assay results published in patent US4892865A, “Pyrrolo[2,3-d]pyrimidine nucleosides as antiviral agents” (The Regents of the University of Michigan, priority 1987, dated 1990).
Read-outs that look alike come from different tables or passages of the source.

Tests used:
[1] = test system: Human Immunodeficiency Virus Type 1 (HIV-1); assay: CPE-inhibition assay with HIV-1 in ATH8 cells; type: cell-based; conditions: Human immunodeficiency virus 1, ATH-8, 240 h, read-out: 50% Inhibitory Concentration, Virus Tested: HIV
Method: (§1) The human OKT4^+ T-cell clone, ATH8, was obtained from Dr. Samuel Broder's laboratory (NCI) through Dr. Hiroaki Mitsuya. These cells are propagated in RPMI 1640 medium supplemented with 4 mM glutamine, 15% heat-inactivated fetal bovine serum, antibiotics (50 units of penicillin and 50 μg of streptomycin per ml), and 50 units of recombinant-derived human interleukin-2 (ala-125; AMGen Biologicals) per ml. […]
The testing of compounds for antiviral activity employed the modified CPE-inhibition assay described in Mitsuya, H.; Weinhold, K. J.; Furman, P. A.; St. Clair, M. H.; Lehrman, S. N.; Gallo, R. C.; Bolognesi, D.; Barry, D. W.; Broder, S. Proc. Natl. Acad. Sci. USA, (1985) 82, 7096 and Mitsuya, H.; Broder, S. Proc. Natl. Acad. Sci. USA, 1986, 83 1911. […] The protective effect of test compounds was assessed by adding them at varying concentrations to the cultured cells at the time of virus infection, then monitoring the status of the cell pellet.
(§2) ATH8 cells were used as the primary targeted cells in the HIV-induced CPE-inhibition assay. […] These compounds were evaluated at seven half-log dilutions. […] On day 10 post-infection aliquots were taken from individual wells and the total cell number and cell viability (based on trypan-blue dye exclusion) determined. […]

[2] = Cytotoxicity in ATH8 cells (total cell number and viability, trypan-blue dye exclusion); type: cell-based; conditions: human; uninfected ATH8 cells; read-out: 50% Inhibitory Concentration, Cytotoxicity: ATH8
Method: as §1, with “ml. The clone H9 cell lines, an OKT4^+ human T-cell line which is permissive for HIV replication but largely resistant to virus-induced CPE, H9 cells productively infected with the HTLV-IIIB strain of HIV, and H9 cells productively infected with the RF-II Haitian variant of HIV have been obtained from Dr. Robert Gallo's laboratory (NCI) through Dr. Howard Streicher.” for “ml.”
as §2
Dose-response relationships were constructed by linearly regressing the percent inhibition of parameters derived in the preceding sections against log drug concentrations. 50% inhibitory (I50) concentrations were calculated from the regression lines. […]

[3] = Visual cytotoxicity in uninfected HFF cells; type: cell-based; conditions: human; visual cytotoxicity scored on uninfected HFF cells at time of HCMV plaque determination; read-out: 50% Inhibitory Concentration, Cytotoxicity: HFF
Method: (§3) KB cells, an established human cell line derived from an epidermoid oral carcinoma, were routinely grown in minimal essential medium (MEM) with Hanks salts [MEM(H)] supplemented with 5% fetal bovine serum. African green monkey kidney (BSC-1) cells and diploid human foreskin fibroblasts (HFF cells) were grown in MEM with Earle's salts [MEM(E)] supplemented with 10% fetal bovine serum. Cells were passaged according to conventional procedures as described in Shipman, C., Jr.; Smith, S. H.; Carlson, R. H.; Drach, J. C. Antimicrob. Agents Chemother., 1976, 9, 120. The plaque-purified isolate, PO, of the Towne strain of HCMV was used in all experiments and was a gift of Dr. Mark Stinski, University of Iowa. The S-148 strain of HSV-1 was provided by Dr. T. W. Schafer of Schering Corp. Stock preparations of HCMV and HSV-1 were prepared and titered as described in Turk, S. R.; Shipman, C., Jr.; Nassari, R.; Genzlinger, G.; Krawczyk, S. H.; Townsend, L. B.; Drach, J. C. Antimicrob. Agents Chemother., 1987, 31, 544.
(§4) Two basic tests for cellular cytotoxicity were routinely employed for compounds examined in antiviral assays. Cytotoxicity produced in HFF and BSC-1 cells was estimated by visual scoring of cells not affected by virus infection in the plaque reduction assays described above. Cytopathology was estimated at 35- and 60-fold magnification and scored on a zero to four plus basis on the day of staining for plaque enumeration. Cytotoxicity in KB cells was determined by measuring the effects of compounds on the incorporation of radioactive precursors into DNA, RNA and protein as described in Turk, S. R.; Shipman, C., Jr.; Nassari, R.; Genzlinger, G.; Krawczyk, S. H.; Townsend, L. B.; Drach, J. C. Antimicrob. Agents Chemother., 1987, 31, 544.
(§5) Dose-response relationships were constructed by linearly regressing the percent inhibition of parameters derived in the preceding sections against log drug concentrations. 50% inhibitory (I50) concentrations were calculated from the regression lines. The three I50 concentrations for inhibition of DNA, RNA and protein synthesis were averaged to give the values reported in Table I for KB cell cytotoxicity. Samples containing positive controls (acyclovir, ganciclovir, or vidarabine) were used in all assays. Results from sets of assays were rejected if inhibition by the positive control deviated from its mean response by more than 1.5 standard deviations.
(§6) ^b Visual cytotoxicity scored on uninfected HFF or BSC cells at time
(§7) of HCMV or HSV1 plaque determination.

[4] = test system: Herpes Virus Type 1 (HSV-1); assay: HSV-1 plaque reduction in BSC-1 cells; type: cell-based; conditions: read-out: 50% Inhibitory Concentration, Virus Tested: HSV-1
Method: as §3
(§8) HCMV plaque reduction experiments were performed using monolayer cultures of HFF cells by a procedure similar to that referenced above for titration of HCMV, with the exceptions that the virus inoculum (0.2 ml) contained approximately 50 PFU of HCMV and the compounds to be assayed were dissolved in the overlay medium. HSV-1 plaque reduction experiments were performed using monolayer cultures of BSC-1 cells. The assay was performed exactly as referenced above for HSV-1 titration assays except that the 0.2 ml of virus suspension contained approximately 100 PFU of HSV-1 and the compounds to be tested were dissolved in the overlay medium.
as §5
^a In experiments with HSV1 both the HF and 148 strains were used.

[5] = Cytotoxicity in KB cells (inhibition of DNA, RNA and protein synthesis); type: cell-based; conditions: human, average of inhibition of DNA, read-out: 50% Inhibitory Concentration, Cytotoxicity: KB
Method: as §3, §4, §5
^c Average percent inhibition of DNA, RNA and protein synthesis
determined in KB cells as described in the text.

[6] = test system: Human Cytomegalovirus (HCMV); assay: HCMV plaque reduction in HFF cells; type: cell-based, HCMV (Towne strain, isolate PO); human foreskin fibroblasts; conditions: read-out: 50% Inhibitory Concentration, Virus Tested: HCMV
Method: as §3, §8, §5

[7] = Visual cytotoxicity in uninfected BSC-1 cells; type: cell-based; conditions: african green monkey, visual cytotoxicity scored on uninfected BSC cells at time of HSV1 plaque determination, read-out: 50% Inhibitory Concentration, Cytotoxicity: BSC
Method: as §3, §4, §5, §6, §7

[8] = Human alphaherpesvirus 1, BSC-1, in Chlorocebus sabaeus
[9] = Human alphaherpesvirus 1, in Chlorocebus sabaeus, plaque reduction, BSC-1 cells, both the HF and 148 strains were used
[10] = Human betaherpesvirus 5, plaque reduction, HFF cells

Row | Compound | IC50 [1] [µM] | CC50 [2] [µM] | CC50 [3] [µM] | IC50 [4, 8] [µM] | CC50 [5] [µM] | IC50 ([6]; Human betaherpesvirus 5, HFF) [µM] | CC50 [7] [µM] | IC50 [4, 9] [µM] | IC50 [6, 10] [µM] | IC50 ([1]; ATH8 cells, day 10 post-infection) [µM]
1 | NC(=O)c1cn([C@H]2CC[C@@H](CO)O2)c2ncnc(N)c12 [Dideosysangivamycin, 4-amino-7-(2',3'-dideoxy-β-D-ribofuranosyl)pyrrolo[2,3-d]-pyrimidine-5-carboxamide] | 3 | 100 | > 100 | > 100 | > 100 | > 100 | > 100 |  |  | 
2 | NC(=O)c1cn([C@H]2C=C[C@@H](CO)O2)c2ncnc(N)c12 [Dideoxydidehydrosangivamycin, 4-amino-7-(2',3'-dideoxy-2',3'-didehydro-β-D-ribofuranosyl)-pyrrolo-[2,3-d]pyrimidine-5-carboxamide] |  |  | > 100 | > 100 | 54 | > 100 | > 100 |  |  | 
3 | N#Cc1cn([C@H]2C=C[C@@H](CO)O2)c2ncnc(N)c12 [Dideoxydidehydrotoyocamycin, 4-amino-5-cyano-7-(2',3'-dideoxy-2',3'-didehydro-β-D-glycero-pentofuranosyl)-pyrrolo[2,3-d]pyrimidine] |  |  | > 100 |  | > 100 |  | > 100 | 41 | 5.1 | 
4 | Nc1ncnc2c1ccn2[C@H]1C=C[C@@H](CO)O1 [Dideoxydidehydrotubercidin, 4-amino-7(2',3'-dideoxy-2',3'-didehydro-β-ribofuranosyl)-pyrrolo[2,3-d] pyrimidine] |  |  | > 100 |  |  |  | > 100 | > 100 | > 100 | 
5 | N#Cc1cn([C@H]2CC[C@@H](CO)O2)c2ncnc(N)c12 [Dideoxytoyocamycin, 4-amino-5-cyano-7-(2',3'-dideoxy-β-D-ribofuranosyl)-pyrrolo-[2,3-d]-pyrimidine] |  | 100 | > 100 |  | 54 |  | > 100 | 21 | 18 | 3
6 | Nc1ncnc2c1ccn2[C@H]1CC[C@@H](CO)O1 [Dideoxytubercidin, 4-amino-7-(2',3'-dideoxy-β-D-ribofuranosyl)pyrrolo[2,3-d]-pyrimidine] |  |  | > 100 |  |  |  | > 100 | > 100 | > 100 | 
